Assay results from patent US20200360400A1, “COMPOSITIONS AND METHODS FOR THE TREATMENT OF ADDICTION, PSYCHIATRIC DISORDERS, AND NEURODEGENERATIVE DISEASE” (Embera NeuroTherapeutics, Inc., priority 2017, published 2020).
Entries after “also recorded” stand apart in the source; their conditions may differ.

Legend:
[1] = Cocaine interaction crossover study: pharmacokinetics
Description: This was a double-blind, placebo-controlled, randomized, crossover study of non-treatment-seeking subjects with cocaine use disorder (CUD). […] On the last day of each dosing week, subjects received 40 mg IV cocaine. Primary outcomes were safety and pharmacokinetics (PK).
• Subjects: Non-treatment seeking subjects with cocaine use disorder, ages 21-55 • Design: Single center, randomized, double-blind (DB), placebo-controlled (PLB), 2-period crossover design • Dosing: • One week of dosing with MET/OX (EMB-001) and one week of placebo, separated by one-week washout (randomized, DB, counterbalanced) • 40 mg IV cocaine & saline infusions on 7th day of dosing of MET/OX and placebo • Dose of MET/OX: 720 mg MET & 24 mg OX, BID • Primary Objective: Safety of MET/OX when co-administered with cocaine • Secondary Objectives: • Effects of MET/OX on PK of cocaine • Effects of cocaine on PK of MET/OX • Exploratory Objective: • Effects of MET/OX on measures of craving and subjective effects produced by cocaine

adult male Wistar rats [2] = test: Intravenous cocaine self-administration under a multiple, alternating schedule of food reinforcement and cocaine self-administration; type: in vivo, rat
Description: Adult male Wistar rats were trained under a multiple, alternating schedule of cocaine and food self-administration. This schedule consisted of alternating periods of cocaine access and food reinforcement. In some instances, as described further below, three doses of cocaine (0.125, 0.25, or 0.50 mg/kg/infusion) were tested. Rats were also periodically trained with saline substitution (cocaine extinction) and food extinction during the same session.
In our model, rats were exposed to alternating 15-minute periods of access to cocaine self-administration and food reinforcement. Food was used to control for potential nonspecific, ataxis effects of the drugs and combinations.
More specifically, adult male Wistar rats were implanted with chronic jugular catheters. Following recovery from surgery, the rats were trained to respond under a multiple, alternating schedule of food reinforcement and cocaine self-administration. Food-maintained responding was used to control for the non-specific motor effects of the various treatments. During the food component of the schedule, the stimulus light located above the food response lever was illuminated to indicate the availability of food reinforcement. […] A 25-second timeout followed the delivery of each food pellet. During this timeout, the stimulus light was darkened and responses on the food lever were counted but had no scheduled consequences. Responding on the other (cocaine) lever during the food component also had no scheduled consequences. […] Following 15 minutes of access to food, all stimulus lights in the chamber were darkened for a 1-minute timeout. Following the timeout, the stimulus light above the cocaine response lever was illuminated to indicate the availability of cocaine (0.125, 0.25, or 0.5 mg/kg/infusion). […] A 20-second timeout period followed each infusion. […] After 15 minutes of access to cocaine and a 1-minute timeout, the rats were again allowed 15 minutes access to the food component of the schedule. Access to food and cocaine alternated in this manner every 15 minutes during the two hour behavioral sessions so that each rat was exposed to food and cocaine for four 15-minute periods each. Each behavioral session began with 15 minutes access to either food or cocaine, and this alternated daily. Stable baselines of responding were established when the total number of cocaine and food presentations, as well as the number of presentations during each of the four exposures each session, varied less than 10% for three consecutive sessions. At least three different doses of cocaine (e.g., 0.125, 0.25, and 0.5 mg/kg/infusion) were tested. Rats were first trained to self-administer 0.25 mg/kg/infusion, our standard dose of cocaine. When responding stabilized, the dose was changed to 0.125 or 0.5 mg/kg/infusion as appropriate.
Once stable baselines of responding were obtained, dose-response curves for the various compounds were individually generated for each rat. Rats were treated with each dose at least twice with a minimum of two days of baseline cocaine self-administration interspersed between each test. Each group of rats was tested with only two of the test compounds to minimize potential carryover effects. […] This rationale guided the selection of the doses of each of the compounds in the combination studies. Each experimental group consisted of between 8 and 10 rats.

adult male Wistar rats [3] = test: Cue-induced reinstatement of extinguished cocaine seeking; type: in vivo, rat; settings: for reinstatement of extinguished cocaine seeking: pretreatment with the drug alone, general statement
Description: The experiments described herein were designed to investigate whether or not drug combinations identified as effective in reducing cocaine self-administration would also block the ability of conditioned cues to reinstate extinguished cocaine-seeking behavior. Adult male Wistar rats were implanted with chronic jugular catheters and trained to self-administer cocaine (0.25 mg/kg/infusion) by pressing one of the response levers in the experimental chamber (i.e., the “active” or “cocaine” lever) under a fixed-ratio four (FR4) schedule of reinforcement during daily 2-hour sessions conducted 5 days per week. At the start of each session, both levers were extended into the chamber and the stimulus light above the active lever was illuminated to indicate the availability of cocaine. […] A 20-second timeout period followed each infusion. The stimulus light above the active lever and the house light and tone compound stimulus were extinguished during the timeout period, and the light above the active lever was illuminated once the timeout ended. When responding on the active lever varied less than 20% for two consecutive days, the response requirement was increased to FR2. When similar stability was observed under the FR2 schedule or reinforcement, the response requirement was increased to the final ratio of four. The criteria for stable responding under the FR4 schedule of reinforcement was a minimum of 10 days of exposure to this schedule that concluded with at least three consecutive days when responding varied by less than 10%. […] Once stable cocaine self-administration was observed, rats were exposed to extinction; the rats were placed into the behavioral chambers, but responding on the “cocaine” (active) lever produced no programmed consequences. Extinction training continued until responding decreased to less than 20% of baseline self-administration. Then reinstatement testing commended. The rats were placed into the experimental chambers, both response levers were extended into the chamber, and the stimulus light above the “active” lever was illuminated as during self-administration training. […] Responding on the “active” lever during reinstatement testing was taken as an index of cocaine-seeking behavior. Each experimental group consisted of 8 to 10 rats.

[4] = rat, in vivo
Description: Adult male Wistar rats (90 to 120 days old) were implanted with chronic, indwelling jugular catheters and were allowed to recover from surgery. […] Thirty minutes following the drug combination or vehicle injection, the rats received intravenous injections of cocaine (0.25 mg/kg/infusion) every 2 minutes for 1 hour. After the final injection of cocaine, blood was collected from the catheter for the analysis of cocaine and its metabolites ecgonine methyl ester and benzoylecgonine. […] All drug concentrations were determined using GCMS procedures.

male Wistar rats [5] = test: Cocaine self-administration following adrenalectomy, with plasma CORT and ACTH; type: in vivo, rat
Description: Subjects: Male Wistar rats were housed in an AALAC-approved animal care facility and maintained at 85-90% of their free-feeding body weights. These rats were on a reversed 12-hour light, 12-hour dark cycle from the beginning of the experimental procedures.
Catheter surgery: A chronic indwelling jugular catheter (0.012 in i.d.×0.025 in o.d., silicone tubing) was implanted in each rat under pentobarbital anesthesia (50 mg/kg ip) with methyl atropine nitrate pretreatment (10 mg/kg ip). The animals were injected with sterile penicillin G procaine suspension (75,000 units, im) immediately before surgery and allowed 5-7 days to recover.
Adrenalectomy surgery: Animals were anesthetized with pentobarbital (50 mg/kg ip) with methyl atropine nitrate pretreatment (10 mg/kg ip). The adrenal glands were located through an incision and removed. The animals were injected with sterile penicillin G procaine suspension (75,000 units, im) and allowed to recover from surgery for 7 days. After ADX, the rats received drinking water containing 0.9% saline and 1.0% sucrose. Animals in the SHAM group received the same surgery except that the adrenal glands were not removed. They continued to receive tap water to drink.
Equipment: Sound-attenuating operant conditioning chambers (Med-Associates, Inc.) were equipped with two response levers and a stimulus light located directly above each lever. A food pellet dispenser was located between the levers. […] An IBM-compatible personal computer and interface system was used to program the procedure and collect the experimental data.
Alternating Schedule of Cocaine and Food Reinforcement: Following recovery from catheter surgery, the rats were trained to respond under a multiple, alternating schedule of food reinforcement and cocaine self-administration. […]
Hormone Measurements: Blood was collected via the implanted catheters at the end of the behavioral test sessions for the measurement of plasma CORT and adrenocorticotropin releasing hormone (ACTH). […] Plasma CORT and ACTH (ng/ml) were subsequently determined by radioimmunoassay.

male Wistar rats [6] = test: Forced Swim Test (FST), animal model of depression
Wistar-derived male rats = test: Intravenous nicotine self-administration, fixed-ratio schedule (FR1, TO-20 s); type: in vivo, rat
Description: Animals: Wistar-derived male rats (250-300 g) were purchased from Harlan Laboratories (Livermore, Calif.), housed in groups of two, and maintained in a temperature-controlled environment on a 12 h:12 h light cycle. Before testing, animals were provided free access to food and water during a one-week habituation period, and were handled daily for several days to desensitize them to handling stress. Each rat included in the data analysis received all treatments in order to obtain reliable estimates of drug effects and decrease the impact of inter-animal variability. Animals were handled, housed, and sacrificed in accord with the current NIH guidelines and all applicable local, state, and federal regulations and guidelines.
Varenicline-HCl (Ontario Chemicals), at 1 mg/kg (expressed as free base), was used as a positive control and administered subcutaneously. Nicotine hydrogen tartrate (Sigma Aldrich) was dissolved in isotonic saline at 0.3 mg/mL (expressed as free base), adjusted to pH 7.0, and diluted to deliver 0.03 mg/kg/infusion. All test compounds were administered 30 minutes prior to nicotine self-administration sessions in a volume of 1 mL/kg.
Apparatus: Food training and nicotine self-administration took place in 8 standard Coulbourn™ operant conditioning chambers. Each chamber was housed in a sound-attenuating chamber. […]

[7] = smoking cessation (Nides et al. 2006); cited from earlier work
[8] = after 40 mg IV cocaine, + EMB-001
[9] = after 40 mg IV cocaine, + Placebo
[10] = high dose of the drug alone, ip
[11] = low, ineffective dose of the drug alone, ip
[12] = pretreatment with the drug alone, general statement

## CN1[C@H]2CC[C@@H]1[C@@H](C(=O)O)[C@@H](OC(=O)c1ccccc1)C2 [Benzoylecgonine, benzoylecgonine]
[1]; [8]
  AUC 0-∞: 3080 ± 689 ng·h/mL
  Cmax: 198 ± 55 ng/mL
[1]; [9]
  AUC 0-∞: 2970 ± 720 ng·h/mL
  Cmax: 199 ± 45 ng/mL

## CCCCN(CC)c1nc(C)nc2c1c(C)cn2-c1c(C)cc(C)cc1C [CP-154,526]
Adult male Wistar rats [2]; [10]
  cocaine self-administration (number of cocaine infusions): reduced cocaine self-administration
  food-maintained responding: without affecting food-maintained responding
Adult male Wistar rats [2]; [11]
  cocaine self-administration (number of cocaine infusions): did not significantly affect
  food-maintained responding: did not significantly affect
Adult male Wistar rats [2]; [12]
  cocaine self-administration: decrease
Adult male Wistar rats [3]
  reinstatement of extinguished cocaine seeking: decrease

## COC(=O)[C@@H]1[C@H]2CC[C@@H](C[C@@H]1O)N2C [Ecgonine Methyl Ester, ecgonine methyl ester]
[1]; [8]
  AUC 0-∞: 244 ± 50 ng·h/mL
  Cmax: 20.5 ± 3.7 ng/mL
[1]; [9]
  AUC 0-∞: 234 ± 45 ng·h/mL
  Cmax: 21.5 ± 3.7 ng/mL

## Cc1nnc2n1-c1ccc(Cl)cc1C(c1ccccc1)=NC2 [alprazolam]
Adult male Wistar rats [2]; [10]
  cocaine self-administration (number of cocaine infusions): reduced cocaine self-administration
  food-maintained responding: without affecting food-maintained responding
Adult male Wistar rats [2]; [11]
  cocaine self-administration (number of cocaine infusions): did not significantly affect
  food-maintained responding: did not significantly affect
Adult male Wistar rats [2]; [12]
  cocaine self-administration: decrease
Adult male Wistar rats [3]
  reinstatement of extinguished cocaine seeking: decrease

## CC(=O)N1CCN(c2ccc(OCC3COC(Cn4ccnc4)(c4ccc(Cl)cc4Cl)O3)cc2)CC1 (stereo not drawn) [ketoconazole]
Adult male Wistar rats [2]; drug alone
  minimally effective dose (reduces cocaine self-administration by at least 50% without affecting food-maintained responding): 25 mg/kg
Adult male Wistar rats [2]; [11]
  cocaine self-administration (number of cocaine infusions): no effect; also recorded: did not significantly affect
  food-maintained responding: no effect; also recorded: did not significantly affect
Adult male Wistar rats [2]; [12]
  cocaine self-administration: decrease
Adult male Wistar rats [3]
  reinstatement of extinguished cocaine seeking: decrease

## CC(C)(c1cccnc1)C(O)c1cccnc1 (stereo not drawn) [metyrapol]
Adult male Wistar rats [2]; 25, 50, 100 and 150 mg/kg ip 30 min before
  food-maintained responding: not significantly affected except at the highest doses
Adult male Wistar rats [2]; 25, 50, 100 and 150 mg/kg ip 30 min before, cocaine 0.125, 0.25, 0.5 mg/kg/infusion
  cocaine self-administration: dose dependently decreased
[1]; human, in vivo
  AUC 0-∞: 5480 ± 4840 ng·h/mL
  Cmax: 1850 ± 1570 ng/mL

## CC(C)(C(=O)c1cccnc1)c1cccnc1 [metyrapone]
Adult male Wistar rats [2]; [10]
  cocaine self-administration (number of cocaine infusions): reduced cocaine self-administration
  food-maintained responding: without affecting food-maintained responding
Adult male Wistar rats [2]; [11]
  cocaine self-administration (number of cocaine infusions): did not significantly affect
  food-maintained responding: did not significantly affect
Adult male Wistar rats [2]; pretreatment with the drug alone
  plasma corticosterone: significant dose-related decreases
Adult male Wistar rats [2]; [12]
  cocaine self-administration: decrease; also recorded: significant dose-related decreases
Adult male Wistar rats [3]; chronic, 50 mg/kg, ip, once per day for 14 days
  cue-induced reinstatement (responding on the active lever): reduced cocaine seeking to levels seen when only saline was delivered
Adult male Wistar rats [3]
  reinstatement of extinguished cocaine seeking: decrease
[4]
  plasma concentration in the presence of cocaine: did not affect
[4]; ip
  influence on plasma concentration of the other drug: did not influence
Male Wistar rats [5]; MET 50, OX 5, OX 10 mg/kg and combinations
  blocking cocaine self-administration following adrenalectomy compared to pre-adrenalectomy values: as effective, and possibly even more effective
Male Wistar rats [5]; before adrenalectomy
  plasma ACTH: not changed
  plasma corticosterone: not changed
[1]; human, in vivo
  AUC 0-∞: 900 ± 492 ng·h/mL
  Cmax: 429 ± 234 ng/mL
Male Wistar rats [6]; acute and chronic administration, alone and in combination, oxazepam 5 or 10, metyrapone 25 or 50 mg/kg
  immobility in the FST: effective in reducing immobility
Male Wistar rats [6]; chronic, metyrapone 50 mg/kg alone (Met50 group)
  immobility time: showed a lessening of immobility time
Male Wistar rats [6]; chronically treated groups that received only Ox or Met
  group means of immobility time relative to vehicle (tolerance): equal to or exceeded the vehicle

## NCc1cc(=O)[nH]o1 [muscimol]
Adult male Wistar rats [2]; [10]
  cocaine self-administration (number of cocaine infusions): reduced cocaine self-administration
  food-maintained responding: without affecting food-maintained responding
Adult male Wistar rats [2]; [11]
  cocaine self-administration (number of cocaine infusions): did not significantly affect
  food-maintained responding: did not significantly affect

## c1cnc2cc3c(cc2n1)[C@@H]1CNC[C@H]3C1 [varenicline]
Wistar-derived male rats; 1 mg/kg sc, reduced from 15.4±1.0
  nicotine infusions over the 1-hour test session: 7.7±1.2
Wistar-derived male rats; fixed-ratio schedule
  reduction of nicotine self-administration, varenicline compared with the metyrapone:oxazepam combination: comparable to those seen with the lowest dose of the combination
[7]
  quit rates after one year: 14%
